The term Kd denotes the concentration at which binding is half-saturated. Lower therefore signals higher affinity.

Among the data in publication PMC8266621 (2021) are binding and Kd values, retold here.

Test [1] deals with U40C (RNA, riboswitch) GGAGUAGAAGCGUUCAGCGGCCGAAAGGCCGCCCGGAAACUGCUCC
Nature of the test: ITC. To be noted: K+ 50 mM, Mg2+ 10 mM; 50 mM Tris pH 8.0, 25 °C; RNA (1.4 mM stock) titrated into 0.1 mM ligand.

Test [2] has as its system original sequence (GCCC loop) of the xanthine riboswitch (RNA, riboswitch) GGAGUAGAAGCGUUCAGCGGCCGCCCGGCCGCCCGGAAAUUGCUCC
Description: ITC. The settings on record: K+ 50 mM, Mg2+ 10 mM; 50 mM Tris pH 8.0, 25 °C; RNA titrated into 0.1 mM ligand.

In test [3] the test system is G10A (RNA, riboswitch) GGAGUAGAAACGUUCAGCGGCCGAAAGGCCGCCCGGAAAUUGCUCC
Nature of the test: ITC. The settings on record: K+ 50 mM, Mg2+ 10 mM; 50 mM Tris pH 8.0, 25 °C; RNA (1.4 mM stock) titrated into 0.1 mM ligand.

The subject of test [4] is C11G-G35C (RNA, riboswitch) GGAGUAGAAGGGUUCAGCGGCCGAAAGGCCGCCCCGAAAUUGCUCC
Nature of the test: ITC. The settings on record: K+ 50 mM, Mg2+ 10 mM; 50 mM Tris pH 8.0, 25 °C; RNA (1.4 mM stock) titrated into 0.1 mM ligand.

The test system of test [5] is A16G/C33U (RNA, riboswitch) GGAGUAGAAGCGUUCGGCGGCCGAAAGGCCGCUCGGAAAUUGCUCC
Nature of the test: ITC. The settings on record: K+ 50 mM, Mg2+ 10 mM; 50 mM Tris pH 8.0, 25 °C; 4-fold less affinity.

For test [6], the system named is G12A (RNA, riboswitch) GGAGUAGAAGCAUUCAGCGGCCGAAAGGCCGCCCGGAAAUUGCUCC
Description: ITC. The settings on record: K+ 50 mM, Mg2+ 10 mM; 50 mM Tris pH 8.0, 25 °C; 7-fold decrease.

Test [7] relates to U40A (RNA, riboswitch) GGAGUAGAAGCGUUCAGCGGCCGAAAGGCCGCCCGGAAAAUGCUCC
Description: ITC. The settings on record: K+ 50 mM, Mg2+ 10 mM; 50 mM Tris pH 8.0, 25 °C; RNA (1.4 mM stock) titrated into 0.1 mM ligand.

For test [8], the system named is G12Ap (RNA, riboswitch, 2-aminopurine at 12) GGAGUAGAAGCGUUCAGCGGAAACGCCCGGAAAUUGCUCC
Nature of the test: 2-aminopurine fluorescence. The settings on record: K+ 100 mM, Mg2+ 20 mM; 100 mM Tris-HCl pH 8.4, 20 °C; 0.5 μM RNA, 3 mM xanthine; qualitative.

The subject of test [9] is A16G (RNA, riboswitch) GGAGUAGAAGCGUUCGGCGGCCGAAAGGCCGCCCGGAAAUUGCUCC
Description: ITC. The settings on record: K+ 50 mM, Mg2+ 10 mM; 50 mM Tris pH 8.0, 25 °C; 4-fold less affinity.

Test [10] concerns A8C (RNA, riboswitch) GGAGUAGCAGCGUUCAGCGGCCGAAAGGCCGCCCGGAAAUUGCUCC
Description: ITC. To be noted: K+ 50 mM, Mg2+ 10 mM; 50 mM Tris pH 8.0, 25 °C; RNA (1.4 mM stock) titrated into 0.1 mM ligand.

Test [11] relates to C34G (RNA, riboswitch) GGAGUAGAAGCGUUCAGCGGCCGAAAGGCCGCCGGGAAAUUGCUCC
Description: ITC. To be noted: K+ 50 mM, Mg2+ 10 mM; 50 mM Tris pH 8.0, 25 °C; 3- to 4-fold decrease.

Test [12] concerns C11U-G35A (RNA, riboswitch) GGAGUAGAAGUGUUCAGCGGCCGAAAGGCCGCCCAGAAAUUGCUCC
Nature of the test: ITC. To be noted: K+ 50 mM, Mg2+ 10 mM; 50 mM Tris pH 8.0, 25 °C; RNA (1.4 mM stock) titrated into 0.1 mM ligand.

For test [13], the system named is C34A (RNA, riboswitch) GGAGUAGAAGCGUUCAGCGGCCGAAAGGCCGCCAGGAAAUUGCUCC
Nature of the test: ITC. The settings on record: K+ 50 mM, Mg2+ 10 mM; 50 mM Tris pH 8.0, 25 °C; comparable to wild-type.

Test [14] has as its system A9C (RNA, riboswitch) GGAGUAGACGCGUUCAGCGGCCGAAAGGCCGCCCGGAAAUUGCUCC
Nature of the test: ITC. The settings on record: K+ 50 mM, Mg2+ 10 mM; 50 mM Tris pH 8.0, 25 °C; RNA (1.4 mM stock) titrated into 0.1 mM ligand.

For test [15], the system named is A8U (RNA, riboswitch) GGAGUAGUAGCGUUCAGCGGCCGAAAGGCCGCCCGGAAAUUGCUCC
Nature of the test: ITC. The settings on record: K+ 50 mM, Mg2+ 10 mM; 50 mM Tris pH 8.0, 25 °C; RNA (1.4 mM stock) titrated into 0.1 mM ligand.

The test system of test [16] is G10C (RNA, riboswitch) GGAGUAGAACCGUUCAGCGGCCGAAAGGCCGCCCGGAAAUUGCUCC
Description: ITC. The settings on record: K+ 50 mM, Mg2+ 10 mM; 50 mM Tris pH 8.0, 25 °C; RNA (1.4 mM stock) titrated into 0.1 mM ligand.

The subject of test [17] is G35C (RNA, riboswitch) GGAGUAGAAGCGUUCAGCGGCCGAAAGGCCGCCCCGAAAUUGCUCC
Nature of the test: ITC. To be noted: K+ 50 mM, Mg2+ 10 mM; 50 mM Tris pH 8.0, 25 °C; RNA (1.4 mM stock) titrated into 0.1 mM ligand.

The subject of test [18] is G7Ap (RNA, riboswitch, 2-aminopurine at 7) GGAGUAGAAGCGUUCAGCGGAAACGCCCGGAAAUUGCUCC
Description: 2-aminopurine fluorescence. To be noted: K+ 100 mM, Mg2+ 20 mM; 100 mM Tris-HCl pH 8.4, 20 °C; 0.5 μM RNA, 3 mM xanthine; qualitative.

The test system of test [19] is C11G (RNA, riboswitch) GGAGUAGAAGGGUUCAGCGGCCGAAAGGCCGCCCGGAAAUUGCUCC
Nature of the test: ITC. The settings on record: K+ 50 mM, Mg2+ 10 mM; 50 mM Tris pH 8.0, 25 °C; RNA (1.4 mM stock) titrated into 0.1 mM ligand.

Test [20] deals with A6Ap (RNA, riboswitch, 2-aminopurine at 6) GGAGUAGAAGCGUUCAGCGGAAACGCCCGGAAAUUGCUCC
Nature of the test: 2-aminopurine fluorescence. The settings on record: K+ 100 mM, Mg2+ 20 mM; 100 mM Tris-HCl pH 8.4, 20 °C; 0.5 μM RNA, 3 mM xanthine; qualitative.

The test system of test [21] is G7A-A8G (RNA, riboswitch) GGAGUAAGAGCGUUCAGCGGCCGAAAGGCCGCCCGGAAAUUGCUCC
Nature of the test: ITC. The settings on record: K+ 50 mM, Mg2+ 10 mM; 50 mM Tris pH 8.0, 25 °C; RNA (1.4 mM stock) titrated into 0.1 mM ligand.

Test [22] deals with 46 nt NMT1 RNA (GAAA loop), wild-type xanthine riboswitch (RNA, riboswitch) GGAGUAGAAGCGUUCAGCGGCCGAAAGGCCGCCCGGAAAUUGCUCC
Nature of the test: ITC. To be noted: K+ 50 mM, Mg2+ 10 mM, 50 mM Tris pH 8.0, 25 °C; for Kd: RNA titrated into 0.1 mM ligand; for binding: RNA (1.4 mM stock) titrated into 0.1 mM ligand, N.D.

The subject of test [23] is C34U (RNA, riboswitch) GGAGUAGAAGCGUUCAGCGGCCGAAAGGCCGCCUGGAAAUUGCUCC
Nature of the test: ITC. To be noted: K+ 50 mM, Mg2+ 10 mM; 50 mM Tris pH 8.0, 25 °C; 3- to 4-fold decrease.

For test [24], the system named is G10C-U40A (RNA, riboswitch) GGAGUAGAACCGUUCAGCGGCCGAAAGGCCGCCCGGAAAAUGCUCC
Description: ITC. To be noted: K+ 50 mM, Mg2+ 10 mM; 50 mM Tris pH 8.0, 25 °C; RNA (1.4 mM stock) titrated into 0.1 mM ligand.

Test [25] relates to A8Ap (RNA, riboswitch, 2-aminopurine at 8) GGAGUAGAAGCGUUCAGCGGAAACGCCCGGAAAUUGCUCC
Description: 2-aminopurine fluorescence. To be noted: K+ 100 mM, Mg2+ 20 mM; 100 mM Tris-HCl pH 8.4, 20 °C; 0.5 μM RNA, 3 mM xanthine; qualitative.

Regarding `O=c1[nH]c(=O)c2[nH]cnc2[nH]1`, the binding entry in test [1] is on record as “no”; in test [3], “no”; in [4], “no”; in [5], “yes”; in [6], “yes”; in [7] it was “no”. For the same molecule, the binding result is recorded as “yes” in test [8]; “yes” in test [9]; “no” in test [10]; “yes” in test [11]; “no” in [12]; “yes” in [13]. For the same molecule, the binding entry in test [14] is on record as “no”; in test [15] it was “no”; in test [16] it was “no”; in [17], “no”; in test [18] it was “yes”; in test [19], “no”. The binding entry in test [20] is reported as “yes”; in test [21], “no”; in test [23], “yes”; in test [24], “no”; in [25] it was “yes”. Further, the Kd in test [2] stood at 3.6 ± 0.3 µM; in test [22], 4.4 ± 0.2 µM.

In [22], `O=c1[nH]c(=O)c2[nH]c(=O)[nH]c2[nH]1` came in with a Kd of 20.4 ± 1.7 µM.

`O=c1[nH]cnc2nc[nH]c12`: in test [22], the binding entry was “no”.

`O=c1[nH]c(=O)c2[nH]nnc2[nH]1` displayed a Kd in test [22] of 3.0 ± 0.1 µM.

For the molecule `Nc1ncnc2c1ncn2[C@@H]1O[C@H](CO)[C@@H](O)[C@H]1O`, the binding entry in test [22] is “no”.

Consider `Nc1ncnc2[nH]cnc12`, for which the binding result in test [22] is “no”.

Consider `O=c1[nH]cnc2c1ncn2[C@@H]1O[C@H](CO)[C@@H](O)[C@H]1O`, for which, in test [22], the binding entry is on record as “no”.
